Source: article PMC7881204, “A small-molecular inhibitor against Proteus mirabilis urease to treat catheter-associated urinary tract infections” (Scientific Reports, 2021)

Columns and labels:
[1] = molecular target: T1, urease (Canavalia ensiformis, UniProt P07374); experiment: colorimetric urease assay (phenol red), Dixon plot; IC50 […]; format: biochemical
T1 construct: Type III powder, urease from C. ensiformis (Merck)

[2] = molecular target: T1, urease; experiment: colorimetric urease assay (phenol red), dose-response; format: biochemical

T1 sequence (P07374 whole entry, looked up): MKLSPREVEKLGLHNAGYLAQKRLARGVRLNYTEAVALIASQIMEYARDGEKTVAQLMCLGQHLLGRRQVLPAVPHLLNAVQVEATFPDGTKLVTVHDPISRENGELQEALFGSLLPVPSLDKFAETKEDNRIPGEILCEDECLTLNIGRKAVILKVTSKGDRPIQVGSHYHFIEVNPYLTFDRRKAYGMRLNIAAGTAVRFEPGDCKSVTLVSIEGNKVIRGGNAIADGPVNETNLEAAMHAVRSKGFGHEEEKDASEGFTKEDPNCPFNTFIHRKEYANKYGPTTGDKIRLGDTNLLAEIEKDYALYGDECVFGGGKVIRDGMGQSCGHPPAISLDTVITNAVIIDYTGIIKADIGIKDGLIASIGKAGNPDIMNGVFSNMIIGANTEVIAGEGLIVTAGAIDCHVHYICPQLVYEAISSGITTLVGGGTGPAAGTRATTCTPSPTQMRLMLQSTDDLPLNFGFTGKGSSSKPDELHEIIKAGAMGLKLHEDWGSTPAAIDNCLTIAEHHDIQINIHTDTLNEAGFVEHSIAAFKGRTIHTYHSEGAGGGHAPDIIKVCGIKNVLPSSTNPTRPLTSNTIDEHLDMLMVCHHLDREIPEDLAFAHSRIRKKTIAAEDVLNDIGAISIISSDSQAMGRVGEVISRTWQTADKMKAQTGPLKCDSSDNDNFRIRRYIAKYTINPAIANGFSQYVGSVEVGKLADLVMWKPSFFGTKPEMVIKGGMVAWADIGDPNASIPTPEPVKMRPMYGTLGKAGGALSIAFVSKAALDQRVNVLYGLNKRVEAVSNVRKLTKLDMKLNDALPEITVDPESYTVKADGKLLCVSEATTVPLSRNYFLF

Row | Compound | Ki [1] | IC50 [2]
1 | NC(=O)CS [2-MA, 2-mercaptoacetamide] | 2.95 mM | –
2 | CC(=O)NO [AHA, acetohydroxamic acid] | – | 4.8 mM
